Assay: Solubilizing power: test substances added to 10 g of solubilizer until the solubility limit was reached
Assay type: physicochemical
From the text: Example 1 corresponds to the invention, Examples C1 and C2 are intended for comparison.

[1] = in comparison solubilizer C1 (PEG-40 Hydrogenated Castor Oil 100 % by weight)
[2] = in comparison solubilizer C2 (Cocoeth-8 100 % by weight)
[3] = in solubilizer of Example 1 (Cocoeth-8 40, PPG1-PEG9 Lauryl Glycol Ether 30, PEG-40 Hydrogenated Castor Oil 20, Water 10 % by weight)

Row | Molecule | Solubility [1] [g/10 g solubilizer] | Solubility [2] [g/10 g solubilizer] | Solubility [3] [g/10 g solubilizer]
1 | Tocopherol | 0.40 | 0.50 | 0.90
2 | COc1ccc(/C=C/C(=O)OCCC(C)C)cc1 [Isoamyl Methoxycinnamate] | 0.60 | 0.70 | 1.10
3 | Cc1ccc(C=C2C(=O)C3(C)CCC2C3(C)C)cc1 (stereo not drawn) [4-Methylbenzylidene Camphor] | 0.50 | 0.38 | 1.10

Second part, the molecule after the results:

Row | Solubility [1] [g/10 g solubilizer] | Solubility [2] [g/10 g solubilizer] | Solubility [3] [g/10 g solubilizer] | Molecule
4 | 0.40 | 0.20 | 0.44 | COc1ccc(C(=O)c2ccccc2)c(O)c1 [Benzophenone-3]
5 | 1.10 | 1.05 | 4.80 | CC1CCC(C(C)C)C(O)C1 (stereo not drawn) [Menthol]
6 | 0.45 | 0.60 | 1.60 | CCCCC(CC)COC(=O)C=Cc1ccc(OC)cc1 (stereo not drawn) [Octyl Methoxycinnamate]

Reference: patent publication US20030220406A1, “Solutizing agents” (priority 2000, published 2003)
